EC50 data for 19 molecules are collected here from patent US11498903B2 (BRISTOL-MYERS SQUIBB COMPANY, priority 2017, dated 2022).

The structures appear in SMILES notation. Where two headings read alike, the source gives them in different places.

The test has as its target T1, human APJ receptor (Homo sapiens, UniProt P35414).
T1 construct: expressed in transfected cells
T1 sequence (P35414 1-380): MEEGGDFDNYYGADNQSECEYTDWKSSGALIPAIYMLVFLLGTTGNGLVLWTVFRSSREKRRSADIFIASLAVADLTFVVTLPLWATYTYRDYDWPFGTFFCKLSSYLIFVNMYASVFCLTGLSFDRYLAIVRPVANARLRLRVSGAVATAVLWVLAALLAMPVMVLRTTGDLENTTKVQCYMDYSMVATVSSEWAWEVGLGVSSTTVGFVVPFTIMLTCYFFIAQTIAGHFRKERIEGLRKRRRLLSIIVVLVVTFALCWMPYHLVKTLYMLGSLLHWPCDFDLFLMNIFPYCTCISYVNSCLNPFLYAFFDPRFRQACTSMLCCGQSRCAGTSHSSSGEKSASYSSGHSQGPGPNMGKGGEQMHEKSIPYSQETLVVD
Kind of test: Intracellular cAMP accumulation assay (APJ hcAMP, HTRF). It counts as cell-based. As to conditions: HEK293 cells stably expressing human APJ receptor. In short, it runs like this: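 Inhibition of 2 μM forskolin-driven cAMP ([…] present) measured by HTRF in 5,000 HEK293 cells/well stably expressing human APJ, 30 min, room temperature. EC50 came from a variable-slope sigmoidal fit; Ymax was relative to (Pyr1)apelin-13 set at 100%.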

[1] abbreviates: Table 1, inhibition of forskolin-mediated cAMP production, read-out: APJ hcAMP EC50.
The mark [2] stands for this setting: Table 2, read-out: APJ cAMP Human EC50.

As a reminder, the EC50 is the midpoint of the concentration-response curve. Turning to `CCC[C@@H](NC(=O)c1ccc(-c2cc(Cl)ccc2-c2nc3cc(OC(F)(F)F)ccc3[nH]2)c(C(=O)O)c1)c1ccccc1` [Example 22, 5′-chloro-4-{[(1R)-1-phenylbutyl]carbamoyl}-2′-[5-(trifluoromethoxy)-1H-1,3-benzodiazol-2-yl]-[1,1′-biphenyl]-2-carboxylic acid], the EC50 lay within 10 to 100 nM under setting [1] and 10 to 100 nM under setting [2].
As for `CCC[C@@H](NC(=O)c1ccc(-c2cc(Cl)ccc2-c2nc3ncc(C)cc3[nH]2)c(C(=O)O)c1)c1ccccc1` [Example 23, 5′-chloro-2′-{6-methyl-1H-imidazo[4,5-b]pyridin-2-yl}-4-{[(1R)-1-phenylbutyl]carbamoyl}-[1,1′-biphenyl]-2-carboxylic acid], the 50% effective concentration (EC50) lay in the range of 10 to 100 nM under setting [1] and 10 to 100 nM under setting [2].
`CCC[C@@H](NC(=O)c1ccc(-c2cc(Cl)ccc2-c2nc3ccncc3[nH]2)c(C(=O)O)c1)c1ccccc1` [Example 24, 5′-chloro-2′-{1H-imidazo[4,5-c]pyridin-2-yl}-4-{[(1R)-1-phenylbutyl]carbamoyl}-[1,1′-biphenyl]-2-carboxylic acid]: the EC50 under setting [1] was in the range of 10 to 100 nM and the EC50 under setting [2] lay within 10 to 100 nM.
Consider `CCC[C@@H](NC(=O)c1ccc(-c2cc(Cl)ccc2-c2nc3c(ccc4ccccc43)[nH]2)c(C(=O)O)c1)c1ccccc1` [Example 25, 5′-chloro-2′-{3H-naphtho[1,2-d]imidazol-2-yl}-4-{[(1R)-1-phenylbutyl]carbamoyl}-[1,1′-biphenyl]-2-carboxylic acid], for which the EC50 is, setting by setting: under setting [1], 10 to 100 nM; under setting [2], 10 to 100 nM.
Consider `CCC[C@@H](NC(=O)c1ccc(-c2cc(Cl)ccc2-c2nc3cc4c(cc3[nH]2)OCO4)c(C(=O)O)c1)c1ccccc1` [Example 26, 5′-chloro-2′-{4,6-dioxa-10,12-diazatricyclo[7.3.0.0^3,^7]dodeca-1(9),2,7,10-tetraen-11-yl}-4-{[(1R)-1-phenylbutyl]carbamoyl}-[1,1′-biphenyl]-2-carboxylic acid], for which the EC50 under setting [1] was in the range of 10 to 100 nM and the EC50 under setting [2] lay within 10 to 100 nM.
Consider `CCC[C@@H](NC(=O)c1ccc(-c2cc(Cl)ccc2-c2nc3cc4ccccc4cc3[nH]2)c(C(=O)O)c1)c1ccccc1` [Example 27, 5′-chloro-2′-{1H-naphtho[2,3-d]imidazol-2-yl}-4-{[(1R)-1-phenylbutyl]carbamoyl}-[1,1′-biphenyl]-2-carboxylic acid], for which the EC50 under setting [1] fell in the range of 10 to 100 nM and the EC50 under setting [2] fell in the range of 10 to 100 nM.
As to `CCC[C@@H](NC(=O)c1ccc(-c2cc(Cl)ccc2-c2nc3cc(C#N)ccc3[nH]2)c(C(=O)O)c1)c1ccccc1` [Example 28, 5′-chloro-2′-(5-cyano-1H-1,3-benzodiazol-2-yl)-4-{[(1R)-1-phenylbutyl]carbamoyl}-[1,1′-biphenyl]-2-carboxylic acid], the EC50 is, setting by setting: under setting [1], 10 to 100 nM; under setting [2], 10 to 100 nM.
Regarding `CCC[C@@H](NC(=O)c1ccc(-c2cc(Cl)ccc2-c2nc3ncncc3[nH]2)c(C(=O)O)c1)c1ccccc1` [Example 29, 5′-chloro-4-{[(1R)-1-phenylbutyl]carbamoyl}-2′-(7H-purin-8-yl)-[1,1′-biphenyl]-2-carboxylic acid], the EC50 runs as follows: under setting [1], 10 to 100 nM; under setting [2], 10 to 100 nM.
As for `CCC[C@@H](NC(=O)c1ccc(-c2cc(Cl)ccc2-c2nc3nc(C)ccc3[nH]2)c(C(=O)O)c1)c1ccccc1` [Example 30, 5′-chloro-2′-{5-methyl-1H-imidazo[4,5-b]pyridin-2-yl}-4-{[(1R)-1-phenylbutyl]carbamoyl}-[1,1′-biphenyl]-2-carboxylic acid], the EC50 under setting [1] was in the range of 10 to 100 nM and the EC50 under setting [2] lay within 10 to 100 nM.
Consider `CCC[C@@H](NC(=O)c1ccc(-c2cc(Cl)ccc2-c2nc3ncccc3[nH]2)c(C(=O)O)c1)c1ccccc1` [Example 31, 5′-chloro-2′-{1H-imidazo[4,5-b]pyridin-2-yl}-4-{[(1R)-1-phenylbutyl]carbamoyl}-[1,1′-biphenyl]-2-carboxylic acid], for which the EC50 was in the range of 10 to 100 nM under setting [1] and 10 to 100 nM under setting [2].
Regarding `CCC[C@@H](NC(=O)c1ccc(-c2cc(C)ccc2-c2nc3ccccc3[nH]2)c(C(=O)O)c1)c1ccccc1` [Example 32, 2′-(1H-1,3-benzodiazol-2-yl)-5′-methyl-4-{[(1R)-1-phenylbutyl]carbamoyl}-[1,1′-biphenyl]-2-carboxylic acid], the EC50 runs as follows: under setting [1], under 10 nM; under setting [2], under 10 nM.
With `CCC[C@@H](NC(=O)c1ccc(-c2cc(F)ccc2-c2nc3ccccc3[nH]2)c(C(=O)O)c1)c1ccccc1` [Example 33, 2′-(1H-1,3-benzodiazol-2-yl)-5′-fluoro-4-{[(1R)-1-phenylbutyl]carbamoyl}-[1,1′-biphenyl]-2-carboxylic acid], the EC50 is, setting by setting: under setting [1], under 10 nM; under setting [2], under 10 nM.
As for `CCC[C@@H](NC(=O)c1ccc(-c2ccc(F)cc2-c2nc3ccccc3[nH]2)c(C(=O)O)c1)c1ccccc1` [Example 34, 2′-(1H-1,3-benzodiazol-2-yl)-4′-fluoro-4-{[(1R)-1-phenylbutyl]carbamoyl}-[1,1′-biphenyl]-2-carboxylic acid], the EC50 under setting [1] was under 10 nM and the EC50 under setting [2] is under 10 nM.
For `CCC[C@@H](NC(=O)c1ccc(-c2cc(C)ccc2-c2nc3cc(OC)ccc3[nH]2)c(C(=O)O)c1)c1ccccc1` [Example 35, 2′-(5-methoxy-1H-1,3-benzodiazol-2-yl)-5′-methyl-4-{[(1R)-1-phenylbutyl]carbamoyl}-[1,1′-biphenyl]-2-carboxylic acid], the EC50 by setting is: under setting [1], under 10 nM; under setting [2], under 10 nM.
With `CCC[C@@H](NC(=O)c1ccc(-c2cc(F)ccc2-c2nc3cc(OC)ccc3[nH]2)c(C(=O)O)c1)c1ccccc1` [Example 36, 5′-fluoro-2′-(5-methoxy-1H-1,3-benzodiazol-2-yl)-4-{[(1R)-1-phenylbutyl]carbamoyl}-[1,1′-biphenyl]-2-carboxylic acid], the EC50 was under 10 nM under setting [1] and under 10 nM under setting [2].
Take `CCC[C@@H](NC(=O)c1ccc(-c2ccc(F)cc2-c2nc3cc(OC)ccc3[nH]2)c(C(=O)O)c1)c1ccccc1` [Example 37, 4′-fluoro-2′-(5-methoxy-1H-1,3-benzodiazol-2-yl)-4-{[(1R)-1-phenylbutyl]carbamoyl}-[1,1′-biphenyl]-2-carboxylic acid]: the EC50 reads like this: under setting [1], under 10 nM; under setting [2], under 10 nM.
In the case of `CCC[C@@H](NC(=O)c1ccc(-c2cc(C)ccc2-c2nc3cc(C(C)(C)C)ccc3[nH]2)c(C(=O)O)c1)c1ccccc1` [Example 38, 2′-(5-tert-butyl-1H-1,3-benzodiazol-2-yl)-5′-methyl-4-{[(1R)-1-phenylbutyl]carbamoyl}-[1,1-biphenyl]-2-carboxylic acid], the EC50 by setting is: under setting [1], under 10 nM; under setting [2], under 10 nM.
On to `CCC[C@@H](NC(=O)c1ccc(-c2cc(F)ccc2-c2nc3cc(C(C)(C)C)ccc3[nH]2)c(C(=O)O)c1)c1ccccc1` [Example 39, 2′-(5-tert-butyl-1H-1,3-benzodiazol-2-yl)-5′-fluoro-4-{[(1R)-1-phenylbutyl]carbamoyl}-[1,1′-biphenyl]-2-carboxylic acid], for which the EC50 under setting [1] was in the range of 10 to 100 nM and the EC50 under setting [2] was in the range of 10 to 100 nM.
For the molecule `CCC[C@@H](NC(=O)c1ccc(-c2ccc(F)cc2-c2nc3cc(C(C)(C)C)ccc3[nH]2)c(C(=O)O)c1)c1ccccc1` [Example 40, 2′-(5-tert-butyl-1H-1,3-benzodiazol-2-yl)-4′-fluoro-4-{[(1R)-1-phenylbutyl]carbamoyl}-[1,1′-biphenyl]-2-carboxylic acid], the EC50 reads like this: under setting [1], 10 to 100 nM; under setting [2], 10 to 100 nM.
